Source: patent publication US9169310B2 (Zealand Pharma A/S, priority 2010, dated 2015)
Read-outs that look alike come from different tables or passages of the source. Starred links: 1 amine or outer side, 2 acyl side, 3 side chain; linkers in the order of their positions; H or OH if unused. Non-standard residues stand in square brackets, D forms with d. Residues, ends and D or L forms follow the SMILES beside them. Groups on a side chain read outwards from the residue. *: point of attachment. γGlu = O=C(O)[C@H](CCC(=O)[*:2])N[*:1]; Palmitoyl = CCCCCCCCCCCCCCCC(=O)*; Aib = CC(C)(N)C(=O)O

Legend:
human glucagon-R = target: T1, human glucagon-R (Homo sapiens, UniProt P47871); assay: Glucagon receptor efficacy assay (cAMP formation, FlashPlate cAMP kit); type: cell-based
T1 construct: expressed in transfected cells
T1 sequence (P47871 26-477): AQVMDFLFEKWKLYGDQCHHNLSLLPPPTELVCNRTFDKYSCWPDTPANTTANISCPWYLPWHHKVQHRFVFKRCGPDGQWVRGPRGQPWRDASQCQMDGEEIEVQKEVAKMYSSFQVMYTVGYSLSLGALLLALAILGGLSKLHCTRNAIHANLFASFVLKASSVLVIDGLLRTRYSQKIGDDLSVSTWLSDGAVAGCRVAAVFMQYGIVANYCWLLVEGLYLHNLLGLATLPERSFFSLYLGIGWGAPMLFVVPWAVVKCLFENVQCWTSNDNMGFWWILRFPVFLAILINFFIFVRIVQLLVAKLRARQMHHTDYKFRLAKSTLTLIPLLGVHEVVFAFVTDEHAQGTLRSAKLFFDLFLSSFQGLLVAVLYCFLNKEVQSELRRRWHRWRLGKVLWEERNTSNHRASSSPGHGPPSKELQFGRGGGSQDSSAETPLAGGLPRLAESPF
Description: (§1) The 5′-end primers additionally encoded a near Kozak consensus sequence to ensure efficient translation.
(§2) 48 hr after transfection, cells were seeded for limited dilution cloning and selected with 1 mg/ml G418 in the culture medium.

human GLP-1R = target: T2, human GLP-1R (Homo sapiens, UniProt P43220); assay: GLP-1 receptor efficacy assay (cAMP formation, FlashPlate cAMP kit); type: cell-based; conditions: HEK293 cells expressing human GLP-1R; cAMP formed, 15 min at 37° C.
T2 construct: expressed in transfected cells
T2 sequence (P43220 24-463): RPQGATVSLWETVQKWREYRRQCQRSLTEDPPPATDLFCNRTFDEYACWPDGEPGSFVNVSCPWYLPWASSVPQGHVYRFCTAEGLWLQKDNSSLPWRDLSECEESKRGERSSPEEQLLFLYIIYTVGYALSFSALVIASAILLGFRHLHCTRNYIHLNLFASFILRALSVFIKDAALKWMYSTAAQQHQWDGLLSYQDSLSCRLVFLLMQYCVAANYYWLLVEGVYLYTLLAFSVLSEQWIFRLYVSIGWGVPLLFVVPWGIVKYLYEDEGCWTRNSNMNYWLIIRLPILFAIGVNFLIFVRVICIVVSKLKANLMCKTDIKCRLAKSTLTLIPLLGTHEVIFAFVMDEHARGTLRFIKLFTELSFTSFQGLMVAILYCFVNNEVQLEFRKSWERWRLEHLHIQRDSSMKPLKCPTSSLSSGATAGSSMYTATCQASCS
Description: as §1, §2

[1] = HEK293 cells expressing human glucagon-R; cAMP formed, 15 min at 37° C.; read-out: EC50 nM) GluR

`CCCCCCCCCCCCCCCC(=O)N[C@@H](CCC(=O)NCCCC[C@H](NC(=O)[C@H](CO)NC(=O)[C@H](CC(=O)O)NC(=O)[C@H](CC(C)C)NC(=O)[C@H](Cc1ccc(O)cc1)NC(=O)[C@H](CCCCN)NC(=O)[C@H](CO)NC(=O)[C@H](Cc1ccc(O)cc1)NC(=O)[C@H](CC(=O)O)NC(=O)[C@H](CO)NC(=O)[C@@H](NC(=O)[C@H](Cc1ccccc1)NC(=O)[C@@H](NC(=O)CNC(=O)[C@@H](NC(=O)C(C)(C)NC(=O)[C@@H](N)Cc1c[nH]cn1)[C@@H](C)CC)[C@@H](C)O)[C@@H](C)O)C(=O)N[C@@H](C)C(=O)N[C@@H](C)C(=O)N[C@@H](Cc1c[nH]cn1)C(=O)N[C@@H](CC(=O)O)C(=O)N[C@@H](Cc1ccccc1)C(=O)N[C@H](C(=O)N[C@@H](CCC(=O)O)C(=O)N[C@@H](Cc1c[nH]c2ccccc12)C(=O)N[C@@H](CC(C)C)C(=O)N[C@@H](CC(C)C)C(=O)N[C@@H](CO)C(=O)N[C@@H](C)C(N)=O)C(C)C)C(=O)O` [Compound 19] (H-H[Aib]IGTFTSDYSKYLDSK([γGlu-Palmitoyl])AAHDFVEWLLSA-NH2) gave an EC50 (human glucagon-R; earlier determination, replaced by redetermination in Table 1, read-out: EC50 GluR, earlier determined value) of 3 nM and an EC50 (human GLP-1R) of 0.16 nM.

Work on `CCCCCCCCCCCCCCCC(=O)N[C@@H](CCC(=O)NCCCC[C@H](NC(=O)[C@H](CO)NC(=O)[C@H](CC(=O)O)NC(=O)[C@H](CC(C)C)NC(=O)[C@H](Cc1ccc(O)cc1)NC(=O)[C@H](CCCCN)NC(=O)[C@H](CO)NC(=O)[C@H](Cc1ccc(O)cc1)NC(=O)[C@H](CC(=O)O)NC(=O)[C@H](CO)NC(=O)[C@@H](NC(=O)[C@H](Cc1ccccc1)NC(=O)[C@@H](NC(=O)CNC(=O)CNC(=O)C(C)(C)NC(=O)[C@@H](N)Cc1c[nH]cn1)[C@@H](C)O)[C@@H](C)O)C(=O)N[C@@H](C)C(=O)N[C@@H](C)C(=O)N[C@@H](Cc1c[nH]cn1)C(=O)N[C@@H](CC(=O)O)C(=O)N[C@@H](Cc1ccccc1)C(=O)N[C@H](C(=O)N[C@@H](CCC(=O)O)C(=O)N[C@@H](Cc1c[nH]c2ccccc12)C(=O)N[C@@H](CC(C)C)C(=O)N[C@@H](CC(C)C)C(=O)N[C@@H](CO)C(=O)N[C@@H](C)C(N)=O)C(C)C)C(=O)O` [Compound 20] (H-H[Aib]GGTFTSDYSKYLDSK([γGlu-Palmitoyl])AAHDFVEWLLSA-NH2) yielded an EC50 (human glucagon-R; [1]) of 26 nM and an EC50 (human GLP-1R) of 0.21 nM.

In the case of `CCCCCCCCCCCCCCCC(=O)N[C@@H](CCC(=O)NCCCC[C@H](NC(=O)[C@H](CO)NC(=O)[C@H](CC(=O)O)NC(=O)[C@H](CC(C)C)NC(=O)[C@H](Cc1ccc(O)cc1)NC(=O)[C@H](CCCCN)NC(=O)[C@H](CO)NC(=O)[C@H](Cc1ccc(O)cc1)NC(=O)[C@H](CC(=O)O)NC(=O)[C@H](CO)NC(=O)[C@@H](NC(=O)[C@H](Cc1ccccc1)NC(=O)[C@@H](NC(=O)CNC(=O)[C@H](Cc1c[nH]cn1)NC(=O)C(C)(C)NC(=O)[C@@H](N)Cc1c[nH]cn1)[C@@H](C)O)[C@@H](C)O)C(=O)N[C@@H](C)C(=O)N[C@@H](C)C(=O)N[C@@H](Cc1c[nH]cn1)C(=O)N[C@@H](CCC(=O)O)C(=O)N[C@@H](Cc1ccccc1)C(=O)N[C@H](C(=O)N[C@@H](CCC(=O)O)C(=O)N[C@@H](Cc1c[nH]c2ccccc12)C(=O)N[C@@H](CC(C)C)C(=O)N[C@@H](CC(C)C)C(=O)N[C@@H](CCC(=O)O)C(=O)N[C@@H](C)C(N)=O)C(C)C)C(=O)O` [Compound 5] (H-H[Aib]HGTFTSDYSKYLDSK([γGlu-Palmitoyl])AAHEFVEWLLEA-NH2), the EC50 (human glucagon-R; [1]) is reported as 0.15 nM and the EC50 (human GLP-1R) is reported as 0.16 nM.
